According to publication PMC5766608, “Target engagement imaging of PARP inhibitors in small-cell lung cancer” (Nature Communications, 2018):
Like-named read-outs stand apart in the source and are kept apart here.

Key:
[1] = molecular target: T1, PARP2 (Homo sapiens, UniProt Q9UGN5); assay: PARP2 IC50 assay (BPS Bioscience, Strep-HRP, histone substrate); assay type: biochemical; details: footnote a: see Supplementary Fig. 2
T1 construct: purchased BPS Bioscience, San Diego, CA
Experimental: Assays were performed by BPS Bioscience, San Diego, CA. […] Data was reported by BPS a`s % enzyme activity curve from 0.03 nM or 0.1 nM to 1000 nM.

[2] = system: PARP1/2; details: olaparib 50 mg/kg; for Initial blocking (t = 1 h): talazoparib 0.3 mg/kg i.v., 60 min between drug and tracer
Experimental: All PET/CT images (n = 90) were acquired on an Inveon PET/CT (Siemens) and reconstructed scans were analyzed using the Inveon Research Workplace Software (Siemens). To acquire PET/CT images, animals were anesthetized with 2% isoflurane and positioned on the scanner bed. […] PET data were collected for 5–10 min, followed by CT.
Activity concentration was quantified by averaging the mean values taken from VOIs drawn over the entire tumor as it appeared in the CT and portrayed as a mean %ID/g ± SD.

[3] = system: PARP1/2; assay: Blocking of PARPi-FL uptake by PARP inhibitors (confocal microscopy, flow cytometry); assay type: cell-based, human; details: JHU-LX22 cells
Experimental: Cells were then treated with fluorescent imaging agent PARPi-FL and either imaged via confocal microscopy or measured via flow cytometry. […] Then, cells were trypsinized, subjected to flow cytometry and analyzed for the relative PARPi-FL fluorescence signal. […] Error bars represent the SD of three independent experiments with three parallels each
We conducted confocal laser scanning microscopy to visualize the extent of intracellular blocking of PARPi-FL uptake by different PARPi. […] PARPi-FL was removed and cells were washed in fresh medium for 10 min. Next, cells were treated with 4% Paraformaldehyde (PFA) for 8 min on ice to ensure fixation. […] PARPi-FL intensity was determined by measuring the PARPi-FL fluorescence intensity in all nuclei, which were thresholded using Hoechst staining.
After the respective treatment/staining, which is described below for the different experiments, cells were washed in PBS, trypsinized, washed with flow buffer (1% BSA (w/v) in PBS), transferred to 5 mL flow cytometry tubes through the 40 µm cell strainer cap and left on ice until measurement in the flow cytometer (Fortessa II). Raw data were processed in FlowJo software in order to calculate PARPi-FL uptake per cell. Dead cells were excluded by eliminating DAPI positive cells from the analysis (Supplementary Fig. 8). Cell clumps and debris were eliminated using the corresponding gates (forward and side scatter) for the unstained cell population. PARPi-FL fluorescence was imaged in the FITC channel against side scatter (area).
Controls (cells incubated with medium instead of a PARP inhibitor) served as reference value and their PARPi-FL signal was defined as 100%.
To quantify the extent of blocking of PARPi-FL uptake by different PARPi, we quantified the intracellular PARPi-FL uptake in JHU-LX22 cells after incubation with PARP inhibitors.

[4] = system: PARP1/2; details: for Blocking of [18F]PARPi tumor uptake (target engagement): 30 min before tracer, PET 2 h later
Text: Fig. 7 Variable dose blocking.
The control group received no therapeutic inhibitor.

[5] = system: PARP; details: cited from earlier work
[6] = system: PARP1/2; assay: Ex vivo autoradiography of target engagement; details: olaparib 50 mg/kg, talazoparib 0.3 mg/kg, 30 min prior to tracer; tumor collected 2 h post tracer
Text: Sections from 3 different tumor areas from each tumor (n = 3/group) were exposed to an autoradiography plate overnight and read the next day. ImageJ was used to quantify the signal intensity of each tissue. Adjacent sections were used for PARP1 IHC and H&E staining to confirm tissue identity and PARP1 expression.

T1 sequence (Q9UGN5 whole entry): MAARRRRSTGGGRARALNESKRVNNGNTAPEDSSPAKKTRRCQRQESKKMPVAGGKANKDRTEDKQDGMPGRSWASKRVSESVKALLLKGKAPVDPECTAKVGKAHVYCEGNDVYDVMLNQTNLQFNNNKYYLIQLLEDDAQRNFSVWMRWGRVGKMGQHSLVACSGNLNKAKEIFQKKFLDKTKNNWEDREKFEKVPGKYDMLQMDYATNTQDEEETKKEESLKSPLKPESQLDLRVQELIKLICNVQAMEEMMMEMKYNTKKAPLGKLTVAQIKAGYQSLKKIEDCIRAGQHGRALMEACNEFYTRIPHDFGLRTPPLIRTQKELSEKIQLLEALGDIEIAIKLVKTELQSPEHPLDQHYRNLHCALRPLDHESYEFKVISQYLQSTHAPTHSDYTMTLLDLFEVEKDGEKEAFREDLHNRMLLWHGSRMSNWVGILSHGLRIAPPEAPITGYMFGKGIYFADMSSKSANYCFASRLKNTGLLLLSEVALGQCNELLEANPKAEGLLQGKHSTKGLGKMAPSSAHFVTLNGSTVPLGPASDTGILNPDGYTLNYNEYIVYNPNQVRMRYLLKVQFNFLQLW

CC1=CC(C)=[N+]2C1=Cc1ccc(CCC(=O)N3CCN(C(=O)c4cc(Cc5n[nH]c(=O)c6ccccc56)ccc4F)CC3)n1[B-]2(F)F [PARPi-FL]
IC50 [1]: 0.31 nM

Cn1ncnc1[C@H]1c2n[nH]c(=O)c3cc(F)cc(c23)N[C@@H]1c1ccc(F)cc1 [Talazoparib, (8S,9R)-5-Fluoro-8-(4-fluorophenyl)-9-(1-methyl-1H-1,2,4-triazol-5-yl)-2,7,8,9-tetrahydro-3H-pyrido[4,3,2-de]phthalazin-3-one]
Initial blocking (t = 1 h) [2]: 56% | Initial blocking (t = 1 h) ([2]; listed as talazoparib): 56% | AUC ([2]; target engagement over 48 h, single dose, talazoparib 0.3 mg/kg): 1021 %h | t1/2 (weighted) ([2]; two phase decay fit of target engagement, talazoparib 0.3 mg/kg): 9.8 h | Blocking of PARPi-FL uptake / target engagement, in words ([3]; pretreatment with inhibitor, then PARPi-FL): most complete target engagement | Blocking of [18F]PARPi tumor uptake (target engagement) ([4]; 0.3 mg/kg i.v.): 50% | Blocking of [18F]PARPi tumor uptake (target engagement) ([4]; 0.9 mg/kg i.v.): 64% | Blocking of [18F]PARPi tumor uptake (target engagement) ([4]; 5 mg/kg i.v.): 89% | Blocking of [18F]PARPi tumor uptake (target engagement) ([4]; 15 mg/kg i.v.): 84% | 50% blocking dose ([4]; single-phase decay curve fit, JHU-LX48 PDX tumor): 0.36 mg/kg | PARP trapping, in words [5]: most effective PARP trapping agent | [18F]PARPi tumor uptake blocked (autoradiography) [6]: 45%

O=C(c1ccc(F)cc1)N1CCN(C(=O)c2cc(Cc3n[nH]c(=O)c4ccccc34)ccc2F)CC1 [^19F-PARPi]
Blocking of PARPi-FL uptake ([3]; pretreatment with PARP inhibitor 25 min, then PARPi-FL 15 min): more than 50%
